Results published in US8722910B2, “Diyne compositions” (Evolva AG, priority 2009, dated 2014).
Values after ≈ are worked out from the molar mass of the structure shown. Like-named read-outs stand apart in the source and are kept apart here.

Columns and labels:
[1] = test system: Staphylococcus aureus 29213; test: In vitro Antibacterial Activity; type: cell-based; settings: read-out: MIC90
C. glabrata = test: In vitro antifungal activity vs. yeasts (MIC/MFC); type: cell-based; settings: Nakaseomyces glabratus, C. glabrata (n = 1)
Candida albicans = test: In vitro fungicidal activity vs. Candida albicans
M. gypseum = test: In vitro antifungal activity vs. dermatophytes (MIC/MFC); type: cell-based; settings: M. gypseum (n = 1)
Phialophora verrucosa = test: Susceptibility of clinical isolates (MIC, broth dilution); type: cell-based; settings: Phialophora verrucosa (n = 4)
Description: (§1) The efficacy of compound IV″ was investigated on 563 clinical isolates of 33 human fungal pathogens. […] For species with n≧10, the MIC90 (MIC, minimal inhibitory concentration) is given as ng/ml. For species with n≦10, the MIC range is given as ng/ml. 24 h and 48 h reads are indicated (Table 1).

Fonsecaea pedrosi = test: as above; type: cell-based; settings: Fonsecaea pedrosi (n = 4)
Description: as §1

Zygomycetes = test: as above; type: cell-based; settings: Zygomycetes (n = 20)
Description: as §1

C. neoformans = test: as above; type: cell-based; settings: C. neoformans (n = 18)
Description: as §1

Fusarium solani = test: as above; type: cell-based; settings: Fusarium solani (n = 10)
Description: as §1

Sporothrix schenckii = test: as above; type: cell-based; settings: Sporothrix schenckii (n = 10)
Description: as §1

Cytochrome P450 2C9 = Cytochrome P450 2C9 (Homo sapiens, UniProt P11712); test: Inhibition of cytochrome P450 enzymes; type: in vitro ADME; settings: substrate diclofenac
Sequence of Cytochrome P450 2C9 (P11712 whole entry): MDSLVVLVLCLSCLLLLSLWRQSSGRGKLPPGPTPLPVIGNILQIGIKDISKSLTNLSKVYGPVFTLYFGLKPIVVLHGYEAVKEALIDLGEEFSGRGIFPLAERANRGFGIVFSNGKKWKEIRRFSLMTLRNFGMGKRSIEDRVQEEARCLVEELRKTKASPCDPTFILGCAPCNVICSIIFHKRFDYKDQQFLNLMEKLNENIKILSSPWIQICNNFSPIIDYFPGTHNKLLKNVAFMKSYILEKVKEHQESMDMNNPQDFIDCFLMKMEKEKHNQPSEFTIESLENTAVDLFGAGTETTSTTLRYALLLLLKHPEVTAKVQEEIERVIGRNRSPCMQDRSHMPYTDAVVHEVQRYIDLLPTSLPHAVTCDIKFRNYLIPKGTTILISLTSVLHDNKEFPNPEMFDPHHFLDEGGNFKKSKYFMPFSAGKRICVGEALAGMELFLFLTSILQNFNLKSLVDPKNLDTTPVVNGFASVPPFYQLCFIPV
Description: (§2) Peak areas corresponding to the metabolite of each substrate were recorded. The percent of control activity was then calculated by comparing the peak area obtained in the presence of the diyne potassium salt and in the absence.

Cytochrome P450 2D6 = Cytochrome P450 2D6 (Homo sapiens, UniProt P10635); test: Inhibition of cytochrome P450 enzymes; type: in vitro ADME; settings: substrate dextromethorphan
Sequence of Cytochrome P450 2D6 (P10635 whole entry): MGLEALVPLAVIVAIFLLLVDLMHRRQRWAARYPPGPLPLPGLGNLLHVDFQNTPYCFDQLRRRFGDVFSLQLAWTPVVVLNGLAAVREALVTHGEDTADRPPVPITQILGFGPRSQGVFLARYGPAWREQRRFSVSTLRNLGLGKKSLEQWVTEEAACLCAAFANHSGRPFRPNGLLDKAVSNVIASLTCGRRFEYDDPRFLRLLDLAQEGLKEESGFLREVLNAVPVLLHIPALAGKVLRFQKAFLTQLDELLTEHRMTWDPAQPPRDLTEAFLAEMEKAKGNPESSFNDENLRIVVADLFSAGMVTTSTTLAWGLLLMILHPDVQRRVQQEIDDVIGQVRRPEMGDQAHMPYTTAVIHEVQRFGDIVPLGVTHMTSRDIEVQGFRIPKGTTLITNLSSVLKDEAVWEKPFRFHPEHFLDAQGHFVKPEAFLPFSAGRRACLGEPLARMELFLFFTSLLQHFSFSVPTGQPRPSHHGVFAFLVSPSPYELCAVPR
Description: as §2

Cytochrome P450 2C8 = Cytochrome P450 2C8 (Homo sapiens, UniProt P10632); test: Inhibition of cytochrome P450 enzymes; type: in vitro ADME; settings: substrate paclitaxel
Sequence of Cytochrome P450 2C8 (P10632 whole entry): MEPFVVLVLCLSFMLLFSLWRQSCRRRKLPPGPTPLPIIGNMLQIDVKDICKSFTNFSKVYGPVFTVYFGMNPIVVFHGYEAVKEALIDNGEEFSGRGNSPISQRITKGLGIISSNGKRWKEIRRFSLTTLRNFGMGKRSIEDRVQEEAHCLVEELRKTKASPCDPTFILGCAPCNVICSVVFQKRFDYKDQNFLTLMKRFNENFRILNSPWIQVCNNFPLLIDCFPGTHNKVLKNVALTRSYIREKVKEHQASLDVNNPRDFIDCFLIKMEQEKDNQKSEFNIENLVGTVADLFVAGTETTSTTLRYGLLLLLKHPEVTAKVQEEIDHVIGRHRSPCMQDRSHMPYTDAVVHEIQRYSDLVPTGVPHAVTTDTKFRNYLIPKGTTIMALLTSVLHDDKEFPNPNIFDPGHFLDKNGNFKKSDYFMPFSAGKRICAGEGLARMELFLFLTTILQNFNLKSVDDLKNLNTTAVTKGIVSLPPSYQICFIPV
Description: as §2

Cytochrome P450 2C19 = Cytochrome P450 2C19 (Homo sapiens, UniProt P33261); test: Inhibition of cytochrome P450 enzymes; type: in vitro ADME; settings: substrate omeprazole
Sequence of Cytochrome P450 2C19 (P33261 whole entry): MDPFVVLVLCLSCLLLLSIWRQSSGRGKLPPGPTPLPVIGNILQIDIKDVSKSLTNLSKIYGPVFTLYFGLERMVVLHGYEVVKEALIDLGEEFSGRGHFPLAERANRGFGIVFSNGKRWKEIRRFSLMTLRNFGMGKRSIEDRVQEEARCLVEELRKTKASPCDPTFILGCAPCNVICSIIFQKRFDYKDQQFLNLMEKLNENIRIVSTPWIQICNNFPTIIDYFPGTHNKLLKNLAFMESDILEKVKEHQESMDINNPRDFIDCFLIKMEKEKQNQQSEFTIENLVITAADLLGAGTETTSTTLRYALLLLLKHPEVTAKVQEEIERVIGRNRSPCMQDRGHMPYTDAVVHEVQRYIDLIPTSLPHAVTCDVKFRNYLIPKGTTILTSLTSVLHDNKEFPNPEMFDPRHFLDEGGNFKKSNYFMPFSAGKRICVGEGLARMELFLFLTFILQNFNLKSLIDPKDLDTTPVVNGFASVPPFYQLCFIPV
Description: as §2

Cytochrome P450 3A = test: Inhibition of cytochrome P450 enzymes; type: in vitro ADME; settings: 10 μM
Description: as §2

CYP1A = test: Inhibition of cytochrome P450 enzymes; type: in vitro ADME; settings: human, probe ethoxyresorufin; substrate ethoxyresorufin
Description: as §2

Cytochrome P450 2B6 = Cytochrome P450 2B6 (Homo sapiens, UniProt P20813); test: Inhibition of cytochrome P450 enzymes; type: in vitro ADME; settings: substrate bupropion
Sequence of Cytochrome P450 2B6 (P20813 whole entry): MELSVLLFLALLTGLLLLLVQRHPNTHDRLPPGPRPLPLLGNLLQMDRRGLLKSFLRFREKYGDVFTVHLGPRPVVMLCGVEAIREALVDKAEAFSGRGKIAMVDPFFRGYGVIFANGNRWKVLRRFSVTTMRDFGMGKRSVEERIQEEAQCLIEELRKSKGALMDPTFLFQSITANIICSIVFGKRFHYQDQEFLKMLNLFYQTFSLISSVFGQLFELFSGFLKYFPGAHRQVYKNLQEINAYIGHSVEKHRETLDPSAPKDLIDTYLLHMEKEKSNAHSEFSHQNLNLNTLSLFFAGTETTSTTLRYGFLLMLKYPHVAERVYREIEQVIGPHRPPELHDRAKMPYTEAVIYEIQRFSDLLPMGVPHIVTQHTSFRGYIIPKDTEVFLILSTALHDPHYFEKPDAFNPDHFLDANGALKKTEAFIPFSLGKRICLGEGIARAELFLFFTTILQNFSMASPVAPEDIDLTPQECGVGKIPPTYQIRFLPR
Description: as §2

CYP3A = test: Inhibition of cytochrome P450 enzymes; type: in vitro ADME; settings: human
Description: as §2

Cytochrome P450 1A = test: Inhibition of cytochrome P450 enzymes; type: in vitro ADME; settings: substrate ethoxyresorufin; 10 μM
Description: as §2

[2] = Aqueous solubility (equilibrated 25° C., 24 hours, HPLC); type: physicochemical; settings: water, thermodynamic from solid
Description: The potassium salt was furthermore submitted to a solubility determination. Aqueous solubility was determined by suspending sufficient compound in water to give a maximum final concentration of ≧100 mg.m1-1 of the parent free-form of the compound. The suspension was equilibrated at 25° C. for 24 hours then the pH was measured. The suspension was then filtered through a glass fibre C filter into a 96 well plate. The filtrate was then diluted by a factor of 101. Quantification was by HPLC with reference to a standard solution of approximately 0.1 mg.ml-1. in DMSO. Different volumes of the standard, diluted and undiluted sample solutions were injected. The solubility was calculated using the peak areas determined by integration of the peak found at the same retention time as the principal peak in the standard injection. Analysis was performed on an Agilent HP1100 series system equipped with a diode array detector and using ChemStation software vB.02.01-SR1.

A. flavus = test: Susceptibility of clinical Aspergillus isolates (MIC); type: cell-based
Description: as §1
(§3) Susceptibilities were determined according to the CLSI reference method M38-A2.

A. versicolor = test: as above; type: cell-based
Description: as §1, §3

A. nidulans = test: as above; type: cell-based; settings: 24 h
Description: as §1, §3

A. terreus = test: as above; type: cell-based
Description: as §1, §3

A. fumigatus = test: as above; type: cell-based
Description: as §1, §3

A. niger = test: as above; type: cell-based; settings: 24 h
Description: as §1, §3

C. krusei = test: Susceptibility of clinical isolates (MIC, broth dilution); type: cell-based
C. albicans = test: as above; type: cell-based

With `O=C(O)CCCCCCC/C=C\C#CC#Cc1ccco1` [Compound III″] the MIC90 [1] was 50000 ng/mL (≈ 176 µM), the MFC (C. glabrata) was 500 ng/mL (≈ 1.76 µM) and the MIC (C. glabrata; 90% inhibition endpoint) was 8 ng/mL (≈ 0.0281 µM). For the same compound, the “Fungicidal Concentration” value (Candida albicans; Candida albicans) was 0.4 ng/mL, the MIC90 (Candida albicans; Candida albicans, 24 h, read-out: MIC90 24 h) was 0.4 ng/mL (≈ 0.00141 µM) and the MIC90 (Candida albicans; Candida albicans, 48 h, read-out: MIC90 48 h) was 0.4 ng/mL (≈ 0.00141 µM). For the same compound, the remaining organisms (Candida albicans; growth-negative samples after 24 hr incubation, subcultured) was < 5 cfu/ml, the “MIC90/MIC range 48 h” value (M. gypseum; 48 h) was <0.06 ng/mL and the MIC (M. gypseum; Nannizzia gypsea, 96 h, 35° C., 4 days) was < 0.06 ng/mL. It also gave an MFC (M. gypseum; Nannizzia gypsea) of 16000 ng/mL (≈ 56.3 µM).
For `O=C([O-])CCCCCCC/C=C\C#CC#Cc1ccco1.[K+]` [Compound IV″, potassium (Z)-14-(furan-2-yl)tetradeca-9-en-11,13-diynoate], the “MIC90/MIC range 48 h” value (Phialophora verrucosa) was 40 to 640 ng/mL, the “MIC90/MIC range 48 h” value (Fonsecaea pedrosi) was 80 to 2560 ng/mL and the “MIC90/MIC range 48 h” value (Zygomycetes) was 16000 ng/mL. For the same compound, the “MIC90/MIC range 48 h” value (C. neoformans) was 2000 ng/mL, the “MIC90/MIC range 48 h” value (Fusarium solani) was >64000 ng/mL and the “MIC90/MIC range 48 h” value (Sporothrix schenckii) was 32 to 5120 ng/mL. For the same compound, the IC50 (Cytochrome P450 2C9) was 18 µM, the “% control at 10 μM” value (Cytochrome P450 2C9; 10 μM) was 74% and the IC50 (Cytochrome P450 2D6) was > 100 µM. For the same compound, the “% control at 10 μM” value (Cytochrome P450 2D6; 10 μM) was 88%, the IC50 (Cytochrome P450 2C8) was > 100 µM and the “% control at 10 μM” value (Cytochrome P450 2C8; 10 μM) was 84%. The IC50 (Cytochrome P450 2C19) was 32 µM, the “% control at 10 μM” value (Cytochrome P450 2C19; 10 μM) was 84% and the “% control at 10 μM” value (Cytochrome P450 3A; substrate midazolam) was 85%. The “% control at 10 μM” value (Cytochrome P450 3A; substrate testosterone) was 90%, the IC50 (CYP1A) was 59 µM and the IC50 (Cytochrome P450 2B6) was 24 µM. The “% control at 10 μM” value (Cytochrome P450 2B6; 10 μM) was 82%, the IC50 (CYP3A; probe midazolam, substrate midazolam) was 45 µM and the IC50 (CYP3A; probe testosterone, substrate testosterone) was 57 µM. The “% control at 10 μM” value (Cytochrome P450 1A) was 92%, the solubility at 24 h [2] was > 96.5 mg/mL and the “MIC90/MIC range 48 h” value (A. flavus; A. flavus (n = 5), MIC range, 48 h) was >5120 ng/mL. For the same compound, the MIC50 (A. flavus; Aspergillus flavus, 24 h) was > 5120 ng/mL, the “MIC90/MIC range 24 h” value (A. versicolor; A. versicolor (n = 4), MIC range, 24 h) was 80 to 2560 ng/mL and the “MIC90/MIC range 48 h” value (A. versicolor; A. versicolor (n = 4), MIC range, 48 h) was 160 to 5120 ng/mL. For the same compound, the MIC50 (A. versicolor; Aspergillus versicolor, 24 h) was 1280 ng/mL, the MIC50 (A. nidulans) was 5120 ng/mL and the “MIC90/MIC range 24 h” value (A. terreus; A. terreus (n = 5), MIC range) was 10 to 20 ng/mL. For the same compound, the MIC50 (A. terreus; Aspergillus terreus, 24 h) was 10 ng/mL, the “MIC90/MIC range 24 h” value (A. fumigatus; A. fumigatus (n = 40), MIC90, 24 h) was 160 ng/mL and the “MIC90/MIC range 48 h” value (A. fumigatus; A. fumigatus (n = 40), MIC90, 48 h) was 1280 ng/mL. For the same compound, the MIC50 (A. fumigatus; Aspergillus fumigatus, 24 h) was 80 ng/mL, the MIC50 (A. niger) was 2560 ng/mL and the “MIC90/MIC range 48 h” value (C. krusei; C. krusei (n = 27), MIC90, 48 h) was 20 ng/mL. The MIC90 (C. krusei; Pichia kudriavzevii, 24 h) was 20 ng/mL, the “MIC90/MIC range 48 h” value (C. albicans; C. albicans (n = 20), MIC90, 48 h) was 2.5 ng/mL and the MIC90 (C. albicans; Candida albicans, 24 h) was 2.5 ng/mL.
